According to ChEMBL document CHEMBL4152237, “Identification of novel β-lactams and pyrrolidinone derivatives as selective Histamine-3 receptor (H3R) modulators as possible anti-obesity agents” (Eur J Med Chem, 2018):
Activity calls are given as the source filed them. Unless noted, no cut-off for these calls is given here.

Legend:
Mus musculus [1] = assay: Anorexic effect in diet-induced obese C57BL/6J mouse assessed as reduction in cumulative food intake at 10 mg/kg, po pretreated for 30 mins followed by food addition measured after 4 hrs; format: functional, organism-based
[2] = Octanol/water partition co-efficient, log P of the compound after 24 hrs by HPLC based shake-flask method; format: physicochemical
Histamine H3 receptor [3] = biological target: T1, Histamine H3 receptor (Homo sapiens, UniProt Q9Y5N1); assay: (§1) Agonist activity at human H3R expressed in HEK293 cells harboring glosensor-22F cAMP plasmid DNA assessed as inhibition of forskolin-stimulated cAMP accumulation preincubated with cells followed by forskolin addition measured after 10 mins by luminescence assay; format: functional, cell-based
T1 sequence (Q9Y5N1 whole entry): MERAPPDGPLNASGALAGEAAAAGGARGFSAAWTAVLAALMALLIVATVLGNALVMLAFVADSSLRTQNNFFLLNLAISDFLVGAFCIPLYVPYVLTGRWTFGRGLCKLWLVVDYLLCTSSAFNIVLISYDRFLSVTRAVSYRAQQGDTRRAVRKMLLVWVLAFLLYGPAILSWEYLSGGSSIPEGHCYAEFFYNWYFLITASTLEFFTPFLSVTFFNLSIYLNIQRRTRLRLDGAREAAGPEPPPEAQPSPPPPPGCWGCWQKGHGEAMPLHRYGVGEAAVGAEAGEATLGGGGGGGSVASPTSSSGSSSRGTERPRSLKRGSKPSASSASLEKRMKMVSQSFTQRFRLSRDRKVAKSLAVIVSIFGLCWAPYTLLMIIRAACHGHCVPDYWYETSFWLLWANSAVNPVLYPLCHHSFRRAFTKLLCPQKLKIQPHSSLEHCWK

Histamine H3 receptor [4] = biological target: T1, Histamine H3 receptor; assay: as §1, with “accumulation at 1 uM” for “accumulation”, “mins in presence of H3R antagonist GSK334429” for “mins”; format: functional, cell-based
[5] = biological target: T2, 5-hydroxytryptamine receptor 2C (Homo sapiens) (UniProt P28335); assay: Agonist activity at human 5-HT2C expressed in HEK293 cells harboring luc2P/NFAT-RE plasmid at 10 uM after 6 to 8 hrs by luciferase reporter gene assay; format: functional, cell-based
T2 sequence (whole entry): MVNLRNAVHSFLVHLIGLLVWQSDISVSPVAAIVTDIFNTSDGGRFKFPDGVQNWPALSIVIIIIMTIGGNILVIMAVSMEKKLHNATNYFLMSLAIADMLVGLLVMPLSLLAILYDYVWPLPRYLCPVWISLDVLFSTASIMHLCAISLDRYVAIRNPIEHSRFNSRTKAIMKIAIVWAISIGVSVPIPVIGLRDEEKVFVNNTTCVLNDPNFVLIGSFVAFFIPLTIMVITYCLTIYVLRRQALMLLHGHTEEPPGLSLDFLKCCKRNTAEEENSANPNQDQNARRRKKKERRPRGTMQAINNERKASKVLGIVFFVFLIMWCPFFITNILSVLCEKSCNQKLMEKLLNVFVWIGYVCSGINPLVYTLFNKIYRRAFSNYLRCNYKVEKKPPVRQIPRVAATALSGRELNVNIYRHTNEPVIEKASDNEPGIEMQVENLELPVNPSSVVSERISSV

[6] = biological target: Histamine H1 receptor (Homo sapiens) (UniProt P35367); assay: Agonist activity at H1R (unknown origin) expressed in HEK293 cells harboring luc2P/NFAT-RE plasmid at 10 uM after 6 to 8 hrs by luciferase reporter gene assay; format: functional, cell-based
Chain of Histamine H1 receptor (Homo sapiens) (P35367 whole entry): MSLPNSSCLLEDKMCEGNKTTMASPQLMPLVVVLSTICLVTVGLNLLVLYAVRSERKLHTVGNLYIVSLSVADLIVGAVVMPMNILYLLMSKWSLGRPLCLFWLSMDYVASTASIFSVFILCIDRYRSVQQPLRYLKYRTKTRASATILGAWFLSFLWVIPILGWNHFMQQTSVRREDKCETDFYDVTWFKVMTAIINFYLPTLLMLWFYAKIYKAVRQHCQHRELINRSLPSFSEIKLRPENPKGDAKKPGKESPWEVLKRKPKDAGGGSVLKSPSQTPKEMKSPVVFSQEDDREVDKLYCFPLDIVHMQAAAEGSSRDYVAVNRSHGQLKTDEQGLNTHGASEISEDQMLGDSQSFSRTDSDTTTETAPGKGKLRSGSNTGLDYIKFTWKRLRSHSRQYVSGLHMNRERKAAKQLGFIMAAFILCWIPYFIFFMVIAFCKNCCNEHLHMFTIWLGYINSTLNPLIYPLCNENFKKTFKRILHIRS

[7] = biological target: Histamine H2 receptor (Homo sapiens) (UniProt P25021); assay: Agonist activity at H2R (unknown origin) expressed in HEK293 cells harboring glosensor-22F cAMP plasmid DNA assessed as inhibition of forskolin-stimulated cAMP accumulation at 10 uM preincubated with cells followed by forskolin addition measured after 10 mins by luminescence assay; format: functional, cell-based
Chain of Histamine H2 receptor (Homo sapiens) (P25021 whole entry): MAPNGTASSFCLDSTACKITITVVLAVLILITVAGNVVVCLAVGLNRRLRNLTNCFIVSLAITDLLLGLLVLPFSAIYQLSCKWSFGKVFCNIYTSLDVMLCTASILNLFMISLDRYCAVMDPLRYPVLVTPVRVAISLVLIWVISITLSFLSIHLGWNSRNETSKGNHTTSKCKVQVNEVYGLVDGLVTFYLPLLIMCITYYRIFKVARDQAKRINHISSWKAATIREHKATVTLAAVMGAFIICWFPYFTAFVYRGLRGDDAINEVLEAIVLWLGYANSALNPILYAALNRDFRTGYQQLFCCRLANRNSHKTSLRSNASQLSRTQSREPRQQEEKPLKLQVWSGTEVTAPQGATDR

[8] = biological target: Histamine H4 receptor (Homo sapiens) (UniProt Q9H3N8); assay: Agonist activity at H4R (unknown origin) expressed in HEK293 cells harboring glosensor-22F cAMP plasmid DNA assessed as inhibition of forskolin-stimulated cAMP accumulation at 10 uM preincubated with cells followed by forskolin addition measured after 10 mins by luminescence assay; format: functional, cell-based
Chain of Histamine H4 receptor (Homo sapiens) (Q9H3N8 whole entry): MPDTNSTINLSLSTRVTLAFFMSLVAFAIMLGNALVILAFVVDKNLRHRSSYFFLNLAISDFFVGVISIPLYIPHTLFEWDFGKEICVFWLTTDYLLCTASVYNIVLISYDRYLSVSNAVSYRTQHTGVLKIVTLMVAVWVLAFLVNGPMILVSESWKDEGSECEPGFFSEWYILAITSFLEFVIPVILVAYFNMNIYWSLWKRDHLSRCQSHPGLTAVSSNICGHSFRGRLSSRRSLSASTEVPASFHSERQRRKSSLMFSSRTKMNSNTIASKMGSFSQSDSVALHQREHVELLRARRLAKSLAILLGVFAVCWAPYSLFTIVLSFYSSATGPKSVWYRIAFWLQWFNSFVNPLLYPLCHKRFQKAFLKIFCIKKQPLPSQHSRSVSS

[9] = biological target: Luciferin 4-monooxygenase (Photinus pyralis) (UniProt P08659); assay: Inhibition of firefly luciferase activity expressed in HEK293 cells assessed as reduction in forskolin-stimulated cAMP accumulation up to 10 uM preincubated with cells followed by forskolin addition measured after 10 mins by luminescence assay; format: cell-based
Chain of Luciferin 4-monooxygenase (Photinus pyralis) (P08659 whole entry): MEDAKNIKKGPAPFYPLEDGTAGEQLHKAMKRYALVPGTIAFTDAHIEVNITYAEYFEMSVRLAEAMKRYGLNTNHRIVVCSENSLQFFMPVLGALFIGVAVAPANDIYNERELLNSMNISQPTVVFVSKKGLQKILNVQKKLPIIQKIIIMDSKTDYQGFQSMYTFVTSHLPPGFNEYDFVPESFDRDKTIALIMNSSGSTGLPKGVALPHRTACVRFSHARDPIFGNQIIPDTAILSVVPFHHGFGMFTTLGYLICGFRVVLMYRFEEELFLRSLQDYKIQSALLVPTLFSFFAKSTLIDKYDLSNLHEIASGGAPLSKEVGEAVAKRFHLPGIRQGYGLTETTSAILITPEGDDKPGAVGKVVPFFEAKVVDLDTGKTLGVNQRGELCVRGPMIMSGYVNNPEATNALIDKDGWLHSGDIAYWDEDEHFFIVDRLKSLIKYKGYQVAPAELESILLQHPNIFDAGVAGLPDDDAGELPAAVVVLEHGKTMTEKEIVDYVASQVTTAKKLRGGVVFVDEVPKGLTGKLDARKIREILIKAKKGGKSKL

HEK-293T = assay: Cytotoxicity against HEK293T cells assessed as reduction in cell viability at 1 to 10 uM after 24 hrs by XTT assay; format: cell-based; conditions: human
[10] = biological target: Histamine H1 receptor (Homo sapiens) (UniProt P35367); assay: Antagonist activity at H1R (unknown origin) expressed in HEK293 cells harboring luc2P/NFAT-RE plasmid at 10 uM after 6 to 8 hrs by luciferase reporter gene assay; format: functional, cell-based
[11] = biological target: Histamine H2 receptor (Homo sapiens) (UniProt P25021); assay: Antagonist activity at H2R (unknown origin) expressed in HEK293 cells harboring glosensor-22F cAMP plasmid DNA assessed as effect on forskolin-stimulated cAMP accumulation at 10 uM preincubated with cells followed by forskolin addition measured after 10 mins by luminescence assay; format: functional, cell-based
[12] = biological target: Histamine H4 receptor (Homo sapiens) (UniProt Q9H3N8); assay: Antagonist activity at H4R (unknown origin) expressed in HEK293 cells harboring glosensor-22F cAMP plasmid DNA assessed as effect on forskolin-stimulated cAMP accumulation at 10 uM preincubated with cells followed by forskolin addition measured after 10 mins by luminescence assay; format: functional, cell-based
[13] = biological target: T2, 5-hydroxytryptamine receptor 2C (Homo sapiens); assay: Antagonist activity at human 5-HT2C expressed in HEK293 cells harboring luc2P/NFAT-RE plasmid at 10 uM after 6 to 8 hrs by luciferase reporter gene assay; format: functional, cell-based
Mus musculus [14] = assay: Anorexic effect in diet-induced obese C57BL/6J mouse assessed as reduction in cumulative food intake at 20 mg/kg, po pretreated for 30 mins followed by food addition measured after 4 hrs; format: functional, organism-based

Row | Compound | Activity (Mus musculus [1]) | logP at 24 h [2] | EC50 (Histamine H3 receptor [3]; read-out: EC50) | inhibition (Histamine H3 receptor [4]) | Activity [5] | Activity [6] | inhibition [7] | inhibition [8] | inhibition [9] | Activity (HEK-293T) | inhibition [10] | inhibition [11] | inhibition [12] | inhibition [13] | Activity (Mus musculus [14]) | EC50 (Histamine H3 receptor [3]; read-out: pEC50 (converted))
1 | C[C@H]1CNCCc2ccc(Cl)cc21 | Active |  |  |  |  |  |  |  |  |  |  |  |  |  |  | 
2 | COc1ccc(C(C(=O)NC2CCCCC2)N2C(=O)C(c3ccc(C(F)(F)F)cc3)=C(c3ccccc3)C23C=CC(=O)C=C3)c(OC)c1OC (stereo not given) |  | 2.74 | 13 nM | inactive | inactive | inactive | inactive | inactive | inactive | Non-Toxic | inactive | inactive | inactive | inactive |  | 
3 | COc1ccc(NC2(c3cccc(Cl)c3)C(=O)N(C3CCCCC3)C(=O)/C2=C/c2ccccc2)cc1OC (stereo not given) |  | 2.45 | 2.7 nM | inactive | inactive | inactive | inactive | inactive | inactive | Non-Toxic | inactive | inactive | inactive | inactive |  | 
4 | COc1cc(N2C(=O)C(=Cc3ccccc3)C2(C(=O)NC(C)(C)C)c2cc(F)cc(F)c2)cc(OC)c1OC (stereo not given) |  | 2.34 | 0.3 nM | inactive | inactive | inactive | inactive | inactive | inactive | Non-Toxic | inactive | inactive | inactive | inactive |  | 
5 | O=C1C=C[C@]23C(c4ccccc4)=CC(=O)N2[C@H](c2ccc([N+](=O)[O-])cc2)C(=O)N[C@@H]3C1 |  | 1.78 | 0.3 nM | inactive | inactive | inactive | inactive | inactive | inactive | Non-Toxic | inactive | inactive | inactive | inactive |  | 
6 | O=C1C=C[C@]23C(c4ccccc4)=CC(=O)N2[C@H](c2ccc(C(F)(F)F)cc2)C(=O)N[C@@H]3C1 |  | 2.1 | 94 nM | inactive | inactive | inactive | inactive | inactive | inactive | Non-Toxic | inactive | inactive | inactive | inactive |  | 
7 | COc1cc(NC2(c3cccc(Cl)c3)C(=O)N(C(C)(C)C)C(=O)/C2=C/c2ccccc2)cc(OC)c1OC (stereo not given) | inactive | 2.96 | 2.7 nM | inactive | inactive | inactive | inactive | inactive | inactive | Non-Toxic | inactive | inactive | inactive | inactive | Active | 
8 | O=C1C=CC2(C=C1)C(c1ccccc1)=CC(=O)N2C(C(=O)NC1CCCCC1)c1ccc(Cl)cc1 (stereo not given) |  | 3.8 | 104 nM | inactive | inactive | inactive | inactive | inactive | inactive | Non-Toxic | inactive | inactive | inactive | inactive |  | 
9 | COc1cc(N2C(=O)C(=Cc3ccccc3)C2(C(=O)NC2CCCCC2)c2ccc(F)cc2)cc(OC)c1OC (stereo not given) |  | 1.85 | 104 nM | inactive | inactive | inactive | inactive | inactive | inactive | Non-Toxic | inactive | inactive | inactive | inactive |  | 
10 | COc1ccc(NC2(c3ccccc3)C(=O)N(C(C)(C)C)C(=O)/C2=C/c2ccccc2)cc1 (stereo not given) |  |  | 3 nM | inactive | inactive | inactive | inactive | inactive | inactive | Non-Toxic | inactive | inactive | inactive | inactive |  | 22.9 nM
